Test results from US8129368B2, “5,6-dihydro-1H-pyridin-2-one compounds” (priority 2008, dated 2012).
Like-named read-outs stand apart in the source and are kept apart here.

Test system: HCV Huh-luc/neo-ET replicon cells
Experiment: Luciferase-Based HCV Replicon Assay (EC50 (1b))
Assay type: cell-based
Details: Hepatitis C virus
Protocol: Luciferase-Based HCV Replicon Assay Protocol (EC50 (1b))
The cell culture component of the assay is performed essentially as described by Bartenschlager et al., Hepatology 2002, 35, 694-703, wherein exponentially growing HCV Huh-luc/neo-ET replicon cells were seeded at 6×10^3 cells/well in 96 well assay plate. 24 hours later the cells were treated with various concentrations of compound or combination of compounds in triplicate using both fixed ratios and checkerboard matrices of test agents and cultured for 72 hours. The luciferase activity in the wells was determined using Bright-Glo reagent (Promega, Madison, Wis.) with a luminometer (Wallac 1420 Multilabel HTS Counter Victor 2). The background control was replicon cells treated with 100 nM BILN-2061, an inhibitor of the HCV protease. % Inhibition was determined for each compound concentration in relation to the negative (no compound) control to calculate the EC50(1b).

[1] = HCV Huh-luc/neo-ET replicon cells, 72 hours, luciferase activity, read-out: EC50 (1b)
[2] = HCV Huh-luc/neo-ET replicon cells, 72 hours, luciferase activity, read-out: EC50(1b) concentration

## CS(=O)(=O)Nc1ccc2c(c1)S(=O)(=O)NC(C1=C(O)[C@@H]3[C@@H]4CC[C@@H](C4)[C@@H]3N(CC3(C(F)(F)F)CC3)C1=O)=N2 [Example 22, N-{3-[(1S,2S,7R,8R)-6-Hydroxy-4-oxo-3-(1-trifluoromethyl-cyclopropylmethyl)-3-aza-tricyclo[6.2.1.0^2,7]undec-5-en-5-yl]-1,1-dioxo-1,2-dihydro-1λ^6-benzo[1,2,4]thiadiazin-7-yl}-methanesulfonamide]
[1]
  EC50: 5 to 25 nM
[2]
  EC50: < 25 nM

## CS(=O)(=O)Nc1ccc2c(c1)S(=O)(=O)NC(C1=C(O)[C@@H]3[C@@H]4CC[C@@H](C4)[C@@H]3N(Cc3ccc(F)c(F)c3)C1=O)=N2 [Example 23, N-{3-[(1S,2S,7R,8R)-3-(3,4-Difluoro-benzyl)-6-hydroxy-4-oxo-3-aza-tricyclo[6.2.1.0^2,7]undec-5-en-5-yl]-1,1-dioxo-1,2-dihydro-1λ^6-benzo[1,2,4]thiadiazin-7-yl}-methanesulfonamide]
Huh-luc/neo-ET, 72 h, read-out: EC50 (1b)
  EC50: 5 to 25 nM
Huh-luc/neo-ET, 72 h, read-out: EC50(1b) concentration
  EC50: < 25 nM

## CS(=O)(=O)Nc1ccc2c(c1)S(=O)(=O)NC(C1=C(O)[C@@H]3[C@H]4CC[C@H](C4)[C@@H]3N(Cc3ccc(F)c(F)c3F)C1=O)=N2 [Example 24, N-{3-[(1R,2S,7R,8S)-6-Hydroxy-4-oxo-3-(2,3,4-trifluoro-benzyl)-3-aza-tricyclo[6.2.1.0^2,7]undec-5-en-5-yl]-1,1-dioxo-1,2-dihydro-1λ^6-benzo[1,2,4]thiadiazin-7-yl}-methanesulfonamide]
[1]
  EC50: 5 to 25 nM
[2]
  EC50: < 25 nM

## CS(=O)(=O)Nc1ccc2c(c1)S(=O)(=O)NC(C1=C(O)[C@@H]3[C@H]4CC[C@H](C4)[C@@H]3N(Cc3ccsc3)C1=O)=N2 [Example 25, N-{3-[(1R,2S,7R,8S)-6-Hydroxy-4-oxo-3-thiophen-3-ylmethyl-3-aza-tricyclo[6.2.1.0^2,7]undec-5-en-5-yl]-1,1-dioxo-1,2-dihydro-1λ^6-benzo[1,2,4]thiadiazin-7-yl}-methanesulfonamide]
[1]
  EC50: 5 to 25 nM
[2]
  EC50: < 25 nM

## CS(=O)(=O)Nc1ccc2c(c1)S(=O)(=O)NC(C1=C(O)[C@@H]3C4CCC(CC4)[C@@H]3N(Cc3cc(F)c(F)cc3F)C1=O)=N2 [Example 26]
[1]
  EC50: 5 to 25 nM
[2]
  EC50: < 25 nM

## CS(=O)(=O)Nc1ccc2c(c1)S(=O)(=O)NC(C1=C(O)[C@@H]3[C@H]4CC[C@H](C4)[C@@H]3N(Cc3cccs3)C1=O)=N2 [Example 27, N-{3-[(1R,2S,7R,8S)-6-Hydroxy-4-oxo-3-thiophen-2-ylmethyl-3-aza-tricyclo[6.2.1.0^2,7]undec-5-en-5-yl]-1,1-dioxo-1,2-dihydro-1λ^6-benzo[1,2,4]thiadiazin-7-yl}-methanesulfonamide]
[1]
  EC50: 5 to 25 nM
[2]
  EC50: < 25 nM

## CS(=O)(=O)Nc1ccc2c(c1)S(=O)(=O)NC(C1=C(O)[C@@H]3[C@H]4CC[C@H](C4)[C@@H]3N(CC3CCCCC3)C1=O)=N2 [Example 28]
[1]
  EC50: 5 to 25 nM
[2]
  EC50: < 25 nM

## Cc1ccccc1CN1C(=O)C(C2=Nc3ccc(NS(C)(=O)=O)cc3S(=O)(=O)N2)=C(O)[C@@H]2[C@@H]3CC[C@@H](C3)[C@@H]21 [Example 29, N-{3-[(1S,2S,7R,8R)-6-Hydroxy-3-(2-methyl-benzyl)-4-oxo-3-aza-tricyclo[6.2.1.0^2,7]undec-5-en-5-yl]-1,1-dioxo-1,2-dihydro-1λ^6-benzo[1,2,4]thiadiazin-7-yl}-methanesulfonamide]
[1]
  EC50: 5 to 25 nM
[2]
  EC50: < 25 nM

## CS(=O)(=O)Nc1ccc2c(c1)S(=O)(=O)NC(C1=C(O)[C@@H]3[C@@H]4CC[C@@H](C4)[C@@H]3N(Cc3cccc(F)c3)C1=O)=N2 [Example 30]
[1]
  EC50: 5 to 25 nM
[2]
  EC50: < 25 nM
